Data: publication PMC11767344, “Entire Encapsulation of Thymopentin by Extended Biphen[3]arene Carboxylate for Improving Plasma Stability” (Molecules, 2025)
Ends that are not written are not given here.

Legend:
[1] = Plasma stability of thymopentin by HPLC; type: in vitro ADME; settings: thymopentin 1.0 mM, equal amount of rat plasma, 37 °C, HPLC-UV 210 nm
Protocol: To test the above hypothesis, we compared the plasma stability of free thymopentin, a host–guest mixture of thymopentin/ExBP3C, thymopentin/CP5A, and thymopentin/cucurbit[7]uril (CB[7]) using high-performance liquid chromatography (HPLC). According to a previously reported method, the above samples (all containing 1.00 mM of thymopentin) were dissolved in deionized water and then incubated with an equal amount of rat plasma at 37 °C. At predetermined intervals, 100 μL of solution in various groups were withdrawn and quenched with 100 μL of acetonitrile containing 0.1% trifluoroacetic acid (TFA). HPLC analysis was performed on an LC-10AT VP Plus liquid chromatography system with an SPD-10 A VP Plus UV–Vis detector operating at 210 nm and quantified using Shimadzu LC solution Lite. The column used was a C18 reverse-phase column, and the mobile phase was composed of solvent A (water containing 0.1% TFA) and solvent B (70% acetonitrile and 0.1% TFA); the injection volume and flow rate were respectively set as 20 μL and 1.00 mL∙min^−1. The appropriate calibration curve was first derived to calculate the concentration of thymopentin based on the above-mentioned procedure (Figure 5a). […]
Figure 5 (a) Calibration curve obtained by HPLC and used to calculate thymopentin concentration in plasma stability. […] (2.0 mM) as determined by HPLC.

[2] = system: mouse fibroblast cell line (L929); assay: Cytotoxicity, Cell Counting Kit-8; type: cell-based; settings: 24 h, 37 °C, 5% CO2, CCK-8, 450 nm; even at relatively high concentrations; mean ± SD, n = 5
Protocol: (§1) In practical biomedical applications, the safety profiles of supplementary materials are of great concern. Here we preliminarily investigated the cytotoxicity of ExBP3C on a mouse fibroblast cell line (L929) and its hemolytic activity toward rabbit red blood cells (rRBCs). ExBP3C was first dissolved in deionized water and diluted to the required concentrations. For cytotoxicity studies, ExBP3C samples were added to L929 cell-containing wells, which were incubated at 37 °C under 5% CO2 for 24 h, and then the Cell Counting Kit-8 reagent was added into each well to stain for 30 min. […] For the hemolysis assay, ExBP3C samples were added to an erythrocyte suspension at 37 °C for 24 h. After that, the suspension was centrifuged at 1000 rpm for 10 min, and 100 μL of supernatant was transferred to a 96-well plate for measurement by a plate reader. […] On the basis of experimental results and prior studies, we concluded that the administration of ExBP3C at the above examination range was relatively nontoxic on a cellular level.
(§2) Figure 6 (a) Relative viability of mouse fibroblast cell line (L929) after treatment with ExBP3C for 24 h at the indicated concentrations (mean ± SD, n = 5). (b) Hemolysis of ExBP3C toward rabbit red blood cells (rRBCs) after 24 h of incubation time, and the hemolytic rate of rRBCs incubated with 1% Triton X-100 was defined as 100% (mean ± SD, n = 3).

thymopentin = target: T1, thymopentin (Homo sapiens, UniProt P42166); assay: Isothermal titration calorimetry (ITC) of thymopentin into ExBP3C; type: binding; settings: deionized water, 25 °C, ExBP3C 40 μM in cell, thymopentin 500 μM in syringe
T1 construct: purchased
Protocol: An isothermal microcalorimetric titration (ITC) experiment was further carried out in deionized water at 25 °C on a PEAQ-ITC to quantitatively assess the binding affinity and related thermodynamic parameters. A 300 μL solution of ExBP3C was placed in the sample cell at a concentration of 40 μM, and 70 μL of a solution of thymopentin (500 μM) was placed in the injection syringe. The titration was conducted by titration of 18 drops of thymopentin to the ExBP3C solution, and all solutions were degassed prior to titration. […] It should be noted that the binding stoichiometry between ExBP3C and thymopentin was determined to be 0.956 ± 0.011, which was very close to 1:1 and consistent with the above entire encapsulation mode (Figure 3). A larger interaction area of thymopentin/ExBP3C would facilitate the production of a stronger binding affinity.
Figure 3 ITC isotherm for the titration of thymopentin/ExBP3C in aqueous solution at room temperature (top: raw data; bottom: net reaction heat obtained from integration of calorimetric traces).

[3] = system: rabbit red blood cells (rRBCs); assay: Hemolysis assay; type: cell-based; settings: 320 μM, 37 °C, 24 h; 1% Triton X-100 defined as 100%; mean ± SD, n = 3
Protocol: as §1, §2

Row | binding stoichiometry, N (sites) (thymopentin) | Substance | Residual thymopentin after exposure to rat plasma, in words ([1]; 30 min) | Time until thymopentin became undetectable ([1]; alone or with macrocycle 2.0 mM) [min] | Cytotoxicity against L929 cells, in words [2] | Relative hemolysis [3] [%]
1 | – | RKDVY [thymopentin] | undetectable | ≤ 30 | – | –
2 | 0.956 ± 0.011 | extended biphen[3]arene carboxylate [ExBP3C] | – | – | minimal cytotoxicity | 1.92
